The text below walks through data of patent US20220265766A1, “ANTIMICROBIAL THERAPY THROUGH THE COMBINATION OF PORE-FORMING AGENTS AND HISTONES” (THE REGENTS OF THE UNIVERSITY OF CALIFORNIA, priority 2019, published 2022).

In experiment [1] the test system is E. coli. In kind it is cell-based, Escherichia coli. Conditions: 1 mM magnesium; 10 μg/mL H2A, 2 μM LL-37, 10 μM MAG2, 1 μg/mL PMB, 10 μg/mL Kan, 10 μg/mL Cam, alone or combined. The procedure: Growth curve experiments were performed using a Synergy HTX multi-mode plate reader and sterile, tissue-culture treated, clear bottom, black polystyrene 96-well microplates (Corning). The temperature setpoint was 37° C. and preheated before beginning measurements. Each well contained 200 μL of total bacterial solution. For experiments performed with stationary phase bacteria, overnight cultures of bacteria were grown overnight to saturation, diluted 1:1000 into minimal medium with 1 μM or 1 mM MgSO4, and supplemented with H2A, LL-37, kanamycin, chloramphenicol, or polymyxin B. For experiments performed with exponential phase bacteria, overnight cultures of bacteria were sub-cultured in fresh minimal medium containing 1 mM MgSO4 and grown to an optical density at 600 nm (OD600) of 0.2. Exponential-phase bacteria were diluted 1:20 into fresh minimal medium with 1 μM or 1 mM MgSO4, and supplemented with H2A, LL-37, magainin-2, kanamycin, chloramphenicol, or polymyxin B. After adding antimicrobial agents, bacterial cultures were immediately added to the 96-well microplates for growth measurements. Growth curves were constructed by taking measurements every 15 minutes for up to 48 hours. Shaking was set to continuous orbital, with a frequency of 282 cpm (3 mm). The read speed was normal, with a 100 msec delay, and 8 measurements per data points.

The test system of experiment [2] is E. coli. As to the kind of experiment: Fluorescent histone and fluorescent LL-37 uptake in E. coli. The settings on record: 1 hour; for AF-H2A uptake (cellular fluorescence): 10 μg/mL AF-H2A alone or with 10 μg/mL Cam, 50 μg/mL Kan, 2 μM LL-37, 1 μg/mL PMB or 10 μM MAG2, 1 mM magnesium. In kind it is cell-based, Escherichia coli. The procedure:
E. coli strain MG1655 or S. aureus strain RN4220 was cultured to an OD600 of 0.2, and diluted 1:20 into fresh minimal medium containing 1 mM MgSO4. H2A uptake in E. coli was measured by adding 10 μg/mL AF-H2A (1% Alexa Fluor-labeled H2A mixed with 99% unlabeled H2A) and 10 μg/mL Cam, 50 μg/mL Kan, 2 μM LL-37, 1 μg/mL PMB, or 10 μM MAG2, incubating for 1 hour, and analyzing using fluorescence microscopy. H2A uptake in S. aureus was measured using same concentrations of AF-H2A and LL-37. To measure uptake in low ionic conditions, E. coli was grown to OD600 of 0.2 in minimal medium containing 1 mM MgSO4, and diluted 1:20 into fresh minimal medium containing 1 μM or 1 mM MgSO4. H2A uptake in E. coli was measured by adding 10 μg/mL AF-H2A (1% Alexa Fluor-labeled H2A mixed with 99% unlabeled H2A), incubating for up to 3 hours, and analyzing using fluorescence microscopy. LL-37 uptake in both bacteria was measured by adding 1 μM fluorescently-labeled LL-37 (1% 5-FAM-LC-LL-37 (Anaspec) mixed with 99% unlabeled LL-37) or additionally with 10 μg/mL unlabeled H2A, incubating for 1 hour, and imaging using fluorescence microscopy. Time-lapse measurements of LL-37 uptake in E. coli were performed by adding 2 μM fluorescently-labeled LL-37 (3% 5-FAM-LC-LL-37 mixed with 97% unlabeled LL-37) or additional 10 μg/mL unlabeled H2A, immobilizing on agarose pads, and imaging using fluorescence microscopy. Cell membranes were visualized by adding 1.6 μM FM4-64 (MilliporeSigma, Burlington, Mass.), immobilizing on agarose pads, and imaging using fluorescence microscopy.

Experiment [3] has as its system E. coli. Conditions: E. coli after 12 hours; reported (ref. 36); cited from earlier work.
Experiment [4] concerns E. coli. As to the kind of experiment: Chromosomal analysis using SYTOX and HupA-mRuby2. Type of experiment: cell-based, Escherichia coli. The settings on record: 10 μg/mL H2A, 2 μM LL-37 or both; 3 hours. As to the method:
MG1655 or XL-1 Blue expressing HupA-mRuby2 was cultured to OD600 of 0.2, diluted 1:20 into fresh MinA minimal medium, and treated with 2 μM LL-37, 10 μg/mL H2A or both LL-37 and H2A for 30 minutes. For SYTOX visualization, MG1655 were stained with 3 uM SYTOX Green nucleic acid stain (ThermoFisher, Waltham, Mass.) for 10 minutes. Cells were immobilized on agarose pads containing 2 uM LL-37, 10 μg/mL H2A, or both LL-37 and H2A, and remained on the pad for 3 hours before imaging using the fluorescence microscopy. For SYTOX analysis, pads additionally contained 5 uM SYTOX Green. Raw images were analyzed through principal component analysis using our own custom-written image analysis tools^67,68 version 1.1 and modified in Matlab (Version R2017b; Mathworks, Natick, Mass.). See ‘Code Availability’ section below for code. Individual cells were identified in phase contrast images using canny edge detection and using SuperSegger^70. […] The covariances between corresponding pixels of different cells were computed using the 16 bit intensity values from the rotated and resized fluorescence images and for the same images rotated by an additional 180 degrees. […] The size of each bin was determined by subtracting the minimum principal component score from the maximum principal component score and dividing that by the number of bins along that principal component. […]

The subject of experiment [5] is E. coli. As to the kind of experiment: SEM imaging of E. coli. In kind it is cell-based, Escherichia coli. Conditions: 10 μg/mL H2A, 1 μM LL-37 or both; 1 hour; 1 mM magnesium. The procedure:
MG1655 was cultured to an OD600 of 0.2, diluted 1:20, and supplemented with 10 μg/mL H2A and/or 1 μM LL-37. Cells were treated for 1 hour and added to a glass bottomed petri dish for 15 minutes. Due to lower levels of adhesion, control cells were not diluted 1:20 and were incubated in the glass-bottomed petri dish for 45 minutes. Media was removed and 4% paraformaldehyde (PFA) was added for 20 minutes to fix bacteria. Dehydration was performed using serial ethanol dilutions. The fixed and dehydrated samples were coated with 10 nm of iridium using an ACE600 sputter coater (Leica Microsystems, Buffalo Grove, Ill.). Bacteria and surfaces were then characterized using a FEI Magellan 400 XHR Scanning Electron Microscope (FEI Company, Hillsboro, Oreg.) at a 45° tilt angle with an acceleration voltage of 3 kV.

Another experiment deals with E. coli genomic DNA. Put plainly: Non-denaturing nucleic acid PAGE. In kind it is binding, Escherichia coli. The settings on record: 1 μg DNA with 0-1.4 μg H2A or LL-37. The procedure: Overnight MG1655 cultures were grown to saturation in Minimal. DNA purification was performed using a Miniprep kit (Qiagen, Germantown, Md.). A three-second sonication step was performed after lysis to isolate genomic DNA.
10 μL mixtures containing 1 μg purified DNA from MG1655 were incubated with 0-1.4 μg Histone H2A or LL-37 for 25 minutes at 25° C. Gel loading sample buffer (5×, Bio-Rad, Hercules, Calif.) was added to a final concentration of 1× and the products were separated by native PAGE on a 5% TBE gel (Bio-Rad, Hercules, Calif.) at 100 V for 60 minutes. The gel was stained with 1×SYBR safe (Invitrogen, Carlsbad, Calif.) in TBE buffer^71 for 30 minutes before visualization using a EOS Rebel T5 DSLR camera with an f/3.5-5.6 18-55 mm lens (Canon, Huntington, N.Y.) and a DR46B Transilluminator (Clare Chemical, Dolores, Colo.).

Experiment [6] relates to E. coli. Put plainly: Timelapse of E. coli recovery and time course of membrane healing (CFP, PI). The settings on record: then washed. Type of experiment: cell-based, Escherichia coli. The procedure: To quantify the time-course of recovery in E. coli treated with LL-37 alone or with the synergistic combination of LL-37 and H2A, MAL204 was cultured to mid-exponential phase in MinA minimal medium, added 1 μM LL-37 or 1 μM LL-37 with 10 μg/mL H2A, and incubated for 1 hour. The solution was filtered through a 0.22 μm filter to remove excess LL-37 and H2A and cells were resuspended in fresh minimal medium. Cells were immobilized on a 1% agarose pad and imaged over an hour time period.
To quantify the time-course of membrane repair in bacteria treated with H2A alone, AMPs alone, or the synergistic combination of AMPs and H2A, MAL204 was grown to mid-exponential phase in MinA minimal medium, diluted 1:20 with 10 μg/mL H2A, 1 μM LL-37, 1 μM LL-37 with 10 μg/mL H2A, 10 μM MAG2, or 1 μM MAG2 with 10 μg/mL H2A, and incubated for 1 hour. […] Cells were allowed to recover for 0, 30, 60 minutes before the addition of 30 μM propidium iodide for 15 minutes prior to performing fluorescence microscopy. Intracellular propidium iodide fluorescence and CFP fluorescence were quantified. To quantify the time-course of membrane repair in bacteria treated with H2A in low and physiological environments, MAL204 was grown to mid-exponential phase, diluted 1:20 into minimal media with 1 μM or 1 mM MgSO4, with or without 10 μg/mL H2A, and incubated for 3 hours. […]

The test system of experiment [7] is E. coli. As to the kind of experiment: In vivo transcription assay (tet-inducible mCherry). Conditions: 1-hour pre-treatment with 10 μg/mL H2A, 2 μM LL-37 or both; anhydrotetracycline 1 hour. In kind it is cell-based, Escherichia coli. As to the method:
To determine how histone entry into the bacterial cell impacts transcription, MAL190 was cultured to mid-exponential phase, diluted 1:20 in MinA minimal medium, treated with 10 μg/mL Histone H2A and/or 2 μM LL-37, incubated for 1 hour, and induced for transcription using 50 ng/mL of anhydrotetracycline. The fluorescence of mCherry was measured after 1 hour using fluorescence microscopy.

Experiment [8] relates to E. coli. As to the kind of experiment: Cell aggregate size and cell size analysis. Type of experiment: cell-based, Escherichia coli. As to the method:
MG1655 were cultured to an OD600 of 0.2, diluted 1:20 into fresh MinA minimal medium, treated with 0-4 μM LL-37 or 0-100 μg/mL H2A, and incubated for 1 hour. Cells were immobilized on an agarose pad using, imaged using phase contrast microscopy, and analyzed using our own custom-written image analysis tools^67,68. version 1.1 that was written in Matlab (Version R2017b; Mathworks, Natick, Mass.). See ‘Code Availability’ section below to download code. The total pixel area of each individual cell was determined by computing the mask area and converting from pixels to μm^2 by multiplying the mask area by a factor of 0.00422 μm^2/pixel to account for the microscope camera pixel size and objective magnification.

Entries after “also recorded” stand apart in the source; their conditions may differ.

As to polymyxin B [PMB, reference compound], in the experiment with E. coli [1], the “E. coli growth (growth rate, lag time)” value is reported as “slightly inhibited growth”. Also, the “AF-H2A uptake (cellular fluorescence)” value with E. coli [2] is given as “significantly enhanced AF-H2A uptake”.

As for “LL-37: human cathelicidin antimicrobial peptide LL-37 (Anaspec)”, the “bulk minimum inhibitory concentration (MIC)” value in the experiment with E. coli [3] was 2 µM. For the same compound, in the experiment with E. coli [4], the HupA-mRuby2 localization result is “condensed the fluorescence near the center of the cell” and the “chromosome localization pattern (Sytox Green)” value was “no significant change in localization”. Besides, in the experiment with E. coli [5], the “cell morphology by SEM” value is reported as “few cell morphological differences”. Besides, in the experiment with E. coli [1], the “E. coli growth (growth rate, lag time)” value was “decreased the growth rate and slightly extended the lag time”. In addition, in the experiment on E. coli genomic DNA, the “migration / retention of E. coli DNA in gel” value is listed as “less retention of bacterial DNA”. Also, the “CFP fluorescence / growth during 1-hour recovery period” value with E. coli [6] (1-hour treatment with 10 μg/mL H2A, 1 μM LL-37, 10 μM MAG2, alone or combined) was “resumed growth and division and retained expression of CFP; also recorded: CFP fluorescence increased or remained the same”. Besides, in the experiment with E. coli [6] (1-hour treatment with H2A, LL-37, MAG2, alone or combined), the “PI fluorescence during 1-hour recovery” value is recorded as “significantly lower”. The “mCherry fluorescence (transcription induction)” value in the experiment with E. coli [7] is “little effect on mCherry fluorescence”. Also, in the experiment on E. coli [8] (H2A or LL-37, 1 hour), the aggregation of cells entry is recorded as “did not induce aggregation”. Further, the cell size entry in the experiment with E. coli [8] (LL-37 alone, indicated concentrations, 1 hour) is given as “significant reduction in cell size”. Moreover, the “AF-H2A uptake (cellular fluorescence)” value in the experiment on E. coli [2] is “significantly enhanced AF-H2A uptake”. In the experiment with E. coli [2] (fluorescently-labeled LL-37 alone or with 10 μg/mL H2A), the “LL-37 uptake (5-FAM-LL-37 fluorescence)” value is reported as “Fluorescence was observed in the cytoplasm”.

For the compound `O=C(N[C@H](CO)[C@H](O)c1ccc([N+](=O)[O-])cc1)C(Cl)Cl` [chloramphenicol, reference compound], the “E. coli growth (growth rate, lag time)” value in the experiment on E. coli [1] is listed as “increased the growth lag time”. The “AF-H2A uptake (cellular fluorescence)” value in the experiment on E. coli [2] is “did not induce AF-H2A uptake”.
